Data taken from patent US20260373156A1, “CANCER TREATMENTS USING MTA-COOPERATIVE PRMT5 INHIBITORS” (AMGEN INC., priority 2022, published 2026).

Columns and labels:
UM-UC-3 cells = assay: CellTiter-Glo viability and CalcuSyn synergy, PRMT5 inhibitor + sotorasib, 6 days; assay type: cell-based; conditions: for Combination Fa: 8640 min
Experimental: (§1) Raw luminescent values were converted to fraction affected (Fa) with the following equation: […]
(§2) Synergy analysis was performed using the CalcuSyn software to determine CI scores based on the drug concentrations used and corresponding Fa values. Results are shown in Table 6 below. *CI Values (Calcusyn): Strong Synergism: 0.1-0.3; Synergism: 0.3-0.7; Moderate Synergism: 0.7-0.85; Slight Synergism: 0.85-0.9; Nearly Additive: 0.9-1.1.

MIAPACA2T2 cells [1] = assay: CellTiter-Glo viability and CalcuSyn synergy, PRMT5 inhibitor + KIF18A, 6 days; conditions: for Combination Fa: 8640 min
MIAPACA2T2 cells [2] = assay: CellTiter-Glo viability and CalcuSyn synergy, PRMT5 inhibitor + sotorasib, 6 days; conditions: for Combination Fa: 8640 min
LU99 cells [3] = assay: CellTiter-Glo viability and CalcuSyn synergy, PRMT5 inhibitor + KIF18A, 6 days; assay type: cell-based; conditions: for Combination Fa: 8640 min
Experimental: as §1
as §2, with “Tables 13-15” for “Table 6”

HCC1395 cells = assay: CellTiter-Glo viability and CalcuSyn synergy, PRMT5 inhibitor + olaparib, 6 days; conditions: for Combination Fa: 8640 min
PSN1 cells = assay: CellTiter-Glo viability and CalcuSyn synergy, PRMT5 inhibitor + KIF18A, 6 days; conditions: for Combination Fa: 8640 min
LU5268 NSCLC xenografts = assay: Tumor growth inhibition, LU5268 NSCLC xenografts (Example 13); assay type: in vivo, Female NOD/SCID mice; conditions: Compound B 100 mg/kg orally once daily + sotorasib 100 mg/kg; versus either single agent alone
Excerpt: 10 Female NOD/SCID mice were implanted with LU5268 NSCLC tumor xenografts. Mean tumor volumes for each grouping were between 100-200 mm^3. […] Plotted data represents the TGI (tumor growth inhibition), n=10 for each group.

LU99 cells [4] = assay: CellTiter-Glo viability and CalcuSyn synergy, PRMT5 inhibitor + sotorasib, 6 days; conditions: for Combination Fa: 8640 min
MIAPACA2 cells = assay: CellTiter-Glo cell viability, PRMT5 inhibitor + sotorasib, 6 days; assay type: cell-based; conditions: Compound B + sotorasib
Experimental: Cell viability was measured by the CellTiter-Glo Luminescence assay after 6 days. […] To assess cell growth after combination treatment, nuclear counts were performed on the IncuCyte live cell imager over 8 days.

[5] = Compound B 0.2916 μM + sotorasib 0.00298 μM
[6] = Compound B 0.2916 μM + sotorasib 0.004768 μM
[7] = Compound B 0.2916 μM + sotorasib 0.007629 μM
[8] = Compound B 0.2916 μM + sotorasib 0.012207 μM
[9] = Compound B 0.2916 μM + sotorasib 0.019531 μM
[10] = Compound B 0.2916 μM + sotorasib 0.03125 μM
[11] = Compound B 0.2302 μM + KIF18A 0.021256 μM
[12] = Compound B 0.2302 μM + KIF18A 0.040386 μM
[13] = Compound B 0.2302 μM + KIF18A 0.076734 μM
[14] = Compound B 0.2302 μM + KIF18A 0.145794 μM
[15] = Compound B 0.2302 μM + KIF18A 0.277008 μM
[16] = Compound B 0.2302 μM + KIF18A 0.526316 μM
[17] = Compound B 0.2302 μM + KIF18A 1 μM
[18] = Compound B 0.4374 μM + sotorasib 0.00596 μM
[19] = Compound B 0.4374 μM + sotorasib 0.009537 μM
[20] = Compound B 0.4374 μM + sotorasib 0.015259 μM
[21] = Compound B 0.4374 μM + sotorasib 0.024414 μM
[22] = Compound B 0.4374 μM + sotorasib 0.039063 μM
[23] = Compound B 0.4374 μM + sotorasib 0.0625 μM
[24] = Compound B 0.4374 μM + sotorasib 0.1 μM
[25] = Compound B 0.0729 μM + KIF18A 0.003984 μM
[26] = Compound B 0.0729 μM + KIF18A 0.005578 μM
[27] = Compound B 0.0729 μM + KIF18A 0.007809 μM
[28] = Compound B 0.0729 μM + KIF18A 0.010933 μM
[29] = Compound B 0.0729 μM + KIF18A 0.015306 μM
[30] = Compound B 0.0729 μM + KIF18A 0.021429 μM
[31] = Compound B 0.0729 μM + KIF18A 0.03 μM
[32] = Compound B 1.4579 μM + olaparib 0.103573 μM
[33] = Compound B 1.4579 μM + olaparib 0.176074 μM
[34] = Compound B 1.4579 μM + olaparib 0.299326 μM
[35] = Compound B 1.4579 μM + olaparib 0.508854 μM
[36] = Compound B 1.4579 μM + olaparib 0.865052 μM
[37] = Compound B 1.4579 μM + olaparib 1.47059 μM
[38] = Compound B 1.4579 μM + olaparib 2.5 μM
[39] = Compound B 0.0384 μM + KIF18A 0.003951 μM
[40] = Compound B 0.0384 μM + KIF18A 0.005926 μM
[41] = Compound B 0.0384 μM + KIF18A 0.008889 μM
[42] = Compound B 0.0384 μM + KIF18A 0.013333 μM
[43] = Compound B 0.0384 μM + KIF18A 0.02 μM
[44] = Compound B 0.0384 μM + KIF18A 0.03 μM
[45] = Compound B 0.0384 μM + KIF18A 0.045 μM
[46] = Compound B 0.0384 μM + sotorasib 0.15625 μM
[47] = Compound B 0.0384 μM + sotorasib 0.3125 μM
[48] = Compound B 0.0384 μM + sotorasib 0.625 μM
[49] = Compound B 0.0384 μM + sotorasib 1.25 μM
[50] = Compound B 0.0384 μM + sotorasib 2.5 μM
[51] = Compound B 0.0384 μM + sotorasib 5 μM
[52] = Compound B 0.0384 μM + sotorasib 10 μM

SMILES: Cc1cc2cc(C(=O)N(Cc3ccc(C(F)(F)F)cn3)[C@@H](C)c3ncccn3)ccc2nc1N [Compound B]
- Computed CI value (UM-UC-3 cells; [5]): 1.172
- Combination Fa (UM-UC-3 cells; [5]): 0.5393
- Computed CI value (UM-UC-3 cells; [6]): 1.028
- Combination Fa (UM-UC-3 cells; [6]): 0.6004
- Computed CI value (UM-UC-3 cells; [7]): 0.778
- Combination Fa (UM-UC-3 cells; [7]): 0.6836
- Computed CI value (UM-UC-3 cells; [8]): 0.685
- Combination Fa (UM-UC-3 cells; [8]): 0.7355
- Computed CI value (UM-UC-3 cells; [9]): 0.677
- Combination Fa (UM-UC-3 cells; [9]): 0.7685
- Computed CI value (UM-UC-3 cells; [10]): 0.584
- Combination Fa (UM-UC-3 cells; [10]): 0.8141
- Computed CI value (MIAPACA2T2 cells [1]; [11]): 0.763
- Combination Fa (MIAPACA2T2 cells [1]; [11]): 0.5368
- Computed CI value (MIAPACA2T2 cells [1]; [12]): 0.591
- Combination Fa (MIAPACA2T2 cells [1]; [12]): 0.6323
- Computed CI value (MIAPACA2T2 cells [1]; [13]): 0.578
- Combination Fa (MIAPACA2T2 cells [1]; [13]): 0.7018
- Computed CI value (MIAPACA2T2 cells [1]; [14]): 0.881
- Combination Fa (MIAPACA2T2 cells [1]; [14]): 0.7173
- Computed CI value (MIAPACA2T2 cells [1]; [15]): 0.826
- Combination Fa (MIAPACA2T2 cells [1]; [15]): 0.7944
- Computed CI value (MIAPACA2T2 cells [1]; [16]): 1.158
- Combination Fa (MIAPACA2T2 cells [1]; [16]): 0.8219
- Computed CI value (MIAPACA2T2 cells [1]; [17]): 2.512
- Combination Fa (MIAPACA2T2 cells [1]; [17]): 0.8073
- Computed CI value (MIAPACA2T2 cells [2]; [18]): 0.533
- Combination Fa (MIAPACA2T2 cells [2]; [18]): 0.678
- Computed CI value (MIAPACA2T2 cells [2]; [19]): 0.425
- Combination Fa (MIAPACA2T2 cells [2]; [19]): 0.749
- Computed CI value (MIAPACA2T2 cells [2]; [20]): 0.443
- Combination Fa (MIAPACA2T2 cells [2]; [20]): 0.781
- Computed CI value (MIAPACA2T2 cells [2]; [21]): 0.535
- Combination Fa (MIAPACA2T2 cells [2]; [21]): 0.798
- Computed CI value (MIAPACA2T2 cells [2]; [22]): 0.543
- Combination Fa (MIAPACA2T2 cells [2]; [22]): 0.838
- Computed CI value (MIAPACA2T2 cells [2]; [23]): 0.471
- Combination Fa (MIAPACA2T2 cells [2]; [23]): 0.887
- Computed CI value (MIAPACA2T2 cells [2]; [24]): 0.83
- Combination Fa (MIAPACA2T2 cells [2]; [24]): 0.875
- Computed CI value (LU99 cells [3]; [25]): 0.937
- Combination Fa (LU99 cells [3]; [25]): 0.596
- Computed CI value (LU99 cells [3]; [26]): 0.625
- Combination Fa (LU99 cells [3]; [26]): 0.7067
- Computed CI value (LU99 cells [3]; [27]): 0.753
- Combination Fa (LU99 cells [3]; [27]): 0.712
- Computed CI value (LU99 cells [3]; [28]): 0.651
- Combination Fa (LU99 cells [3]; [28]): 0.7754
- Computed CI value (LU99 cells [3]; [29]): 0.797
- Combination Fa (LU99 cells [3]; [29]): 0.785
- Computed CI value (LU99 cells [3]; [30]): 0.996
- Combination Fa (LU99 cells [3]; [30]): 0.7939
- Computed CI value (LU99 cells [3]; [31]): 1.312
- Combination Fa (LU99 cells [3]; [31]): 0.797
- Computed CI value (HCC1395 cells; [32]): 0.217
- Combination Fa (HCC1395 cells; [32]): 0.5945
- Computed CI value (HCC1395 cells; [33]): 0.278
- Combination Fa (HCC1395 cells; [33]): 0.6178
- Computed CI value (HCC1395 cells; [34]): 0.338
- Combination Fa (HCC1395 cells; [34]): 0.6595
- Computed CI value (HCC1395 cells; [35]): 0.509
- Combination Fa (HCC1395 cells; [35]): 0.6756
- Computed CI value (HCC1395 cells; [36]): 0.679
- Combination Fa (HCC1395 cells; [36]): 0.711
- Computed CI value (HCC1395 cells; [37]): 0.706
- Combination Fa (HCC1395 cells; [37]): 0.7778
- Computed CI value (HCC1395 cells; [38]): 0.59
- Combination Fa (HCC1395 cells; [38]): 0.8539
- Computed CI value (PSN1 cells; [39]): 0.627
- Combination Fa (PSN1 cells; [39]): 0.778
- Computed CI value (PSN1 cells; [40]): 0.75
- Combination Fa (PSN1 cells; [40]): 0.751
- Computed CI value (PSN1 cells; [41]): 0.594
- Combination Fa (PSN1 cells; [41]): 0.819
- Computed CI value (PSN1 cells; [42]): 0.645
- Combination Fa (PSN1 cells; [42]): 0.825
- Computed CI value (PSN1 cells; [43]): 0.674
- Combination Fa (PSN1 cells; [43]): 0.844
- Computed CI value (PSN1 cells; [44]): 0.778
- Combination Fa (PSN1 cells; [44]): 0.852
- Computed CI value (PSN1 cells; [45]): 0.813
- Combination Fa (PSN1 cells; [45]): 0.88
- anti-tumor activity (LU5268 NSCLC xenografts): significant anti-tumor activity versus either single agent alone
- Computed CI value (LU99 cells [4]; [46]): 0.307
- Combination Fa (LU99 cells [4]; [46]): 0.5467
- Computed CI value (LU99 cells [4]; [47]): 0.234
- Combination Fa (LU99 cells [4]; [47]): 0.5942
- Computed CI value (LU99 cells [4]; [48]): 0.269
- Combination Fa (LU99 cells [4]; [48]): 0.5919
- Computed CI value (LU99 cells [4]; [49]): 0.273
- Combination Fa (LU99 cells [4]; [49]): 0.615
- Computed CI value (LU99 cells [4]; [50]): 0.32
- Combination Fa (LU99 cells [4]; [50]): 0.6304
- Computed CI value (LU99 cells [4]; [51]): 0.321
- Combination Fa (LU99 cells [4]; [51]): 0.6694
- Computed CI value (LU99 cells [4]; [52]): 0.669
- Combination Fa (LU99 cells [4]; [52]): 0.6476
- cell viability (MIAPACA2 cells): reduced MIAPACA2 cell viability
